The values that follow come from ChEMBL document CHEMBL1821550 (Bioorg Med Chem Lett, 2011).

The data set is described as follows: physchem. The settings on record: octanol/water.

The structures appear in SMILES notation.

By logD is commonly meant lipophilicity at a set pH, counting ionised and neutral species. `Cc1nc2ccccn2c1-c1ccc2cc(CCN3CCC[C@H]3C)ccc2n1` returned a logD of 3.2. In the case of `c1c[nH]c(-c2ccc(OCCCN3CCCCC3)cc2)n1` it was 1.6; in that of `C[C@@H]1CCCN1CCc1ccc2nc(C3CC3)ccc2c1`, 2.7; in that of `COc1cc(-c2cc3sc(N4CCC(N5CCCCC5)CC4)nc3cn2)ccn1`, 1.6. In the case of `Nc1cnc(-c2cc3sc(N4CCC(N5CCCCC5)CC4)nc3cn2)cn1` it was 0.2; in that of `C[C@@H]1CCCN1CCc1ccc2nc(-c3cnc(-c4ccccc4)s3)ccc2c1`, 4.3; in that of `Cc1nc(-c2cnccn2)sc1-c1ccc2cc(CCN3CCC[C@H]3C)ccc2n1`, 2.7. As for `CC[C@@H]1Sc2ccccc2O[C@@H]1c1ccc(OCCCN2CCCC2)cc1`, the logD turned out to be 3.8.

Consider `c1ccc([C@@H]2Sc3ccccc3O[C@@H]2c2ccc(OCCCN3CCCC3)cc2)cc1`, for which the logD came out at 4.5. With `COC(=O)N1CC(Oc2cccc(F)c2)CC1C(=O)N1CCCN(C2CCC2)CC1` (stereo unspecified), the logD worked out at 1.8.

In turn, `COc1ccc2nc(C)n(-c3ccc(OCCCN4CCCC4)cc3)c(=O)c2c1` registered a logD of 1.7. For `O=C(/C=C/c1ccc(C(F)(F)F)cc1)N1CCC[C@H]1CN1CCCC1`, the logD turned out to be 2.4. `O=C(C1CC(Oc2ccc(F)cc2)CN1)N1CCCN(C2CCCC2)CC1` (stereo unspecified) registered a logD of 0.9. In the case of `C=C(N(C)Cc1ccc(-c2ccccc2)cc1)N1CCN(C(C)C)CC1` it was 1.8.

`C[C@@H]1CCCN1CCc1ccc2nc(-c3ccccn3)ccc2c1` showed a logD of 2.9. In the case of `N#Cc1ccc(OC2CNC(C(=O)N3CCCN(C4CCCC4)CC3)C2)cc1` (stereo unspecified) it was 0.6.

`C[C@@H]1CCCN1CCc1ccc(-c2ccc(S(=O)(=O)N3CCS(=O)(=O)CC3)cc2)cc1` showed a logD of 1.6. In turn, `C[C@@H]1CCCN1CCc1ccc2nc(-c3ccc4nccnc4c3)ccc2c1` had a logD of 3.1. `Cc1ccc(-c2ccc3cc(CCN4CCC[C@H]4C)ccc3n2)c(C)n1`: the logD was found to be 3.1. In the case of `CCNS(=O)(=O)c1ccc(-c2ccc(CCN3CCC[C@H]3C)cc2)cc1` it was 2.3; in that of `Cc1cccc2nc(C)n(-c3ccc(OCCCN4CCCC4)cc3)c(=O)c12`, 2.2. In the case of `N#Cc1cc(-c2cnc3nc(N4CCC(N5CCCCC5)CC4)sc3c2)ccc1F` it was 2.1; in that of `CC(C)N1CCN(C(=O)N2CCC(Cc3ccccc3)CC2)CC1`, 2; in that of `CCOC(=O)c1ccc(-c2ccc(OCCCN3CCCCC3)cc2)cc1`, 3.1. In the case of `Cc1c(-c2ccc3cc(CCN4CCC[C@H]4C)ccc3n2)sc2nc3ccccc3n12` it was 4.5. `Nc1ccc(-c2cnc3nc(N4CCC(N5CCCCC5)CC4)sc3c2)cn1` had a logD of 0.7.

As for `c1ncc(-c2cc3sc(N4CCC(N5CCCCC5)CC4)nc3cn2)cn1`, the logD amounted to 0.5.

Turning to `Cc1cc(-c2ccc3cc(CCN4CCC[C@H]4C)ccc3n2)nc(-c2ccccc2)n1`, the logD was found to be 4.2. The molecule `C[C@@H]1CCCN1CCc1ccc(-c2ccc(S(=O)(=O)Nc3ccccc3)cc2)cc1` had a logD of 3.5. In the case of `O=C(C1CC(Oc2ccc(Cl)cc2)CN1)N1CCCN(C2CCC2)CC1` (stereo unspecified) it was 0.6; in that of `Cc1c(-c2ccc(Cl)cc2)noc1-c1ccc2cc(CCN3CCC[C@H]3C)ccc2n1`, 5.5; in that of `C[C@@H]1CCCN1CCc1ccc(-c2ccc(S(=O)(=O)N3CCCCC3)cc2)cc1`, 3.1. In the case of `C[C@@H]1CCCN1CCc1ccc2nc(-c3cc(Br)no3)ccc2c1` it was 3.4. Turning to `N#Cc1cncc(-c2cc3sc(N4CCC(N5CCCCC5)CC4)nc3cn2)c1`, the logD was 1. In the case of `COc1nccc2c(=O)n(C)c(-c3ccc(OC4CCN(C5CCC5)CC4)cc3)nc12` it was 1.6; in that of `Nc1cnc(-c2cnc3nc(N4CCC(N5CCCCC5)CC4)sc3c2)cn1`, -0.1. In the case of `Cc1c(-c2ccc3cc(CCN4CCC[C@H]4C)ccc3n2)sc2ncnn12`, the logD was found to be 2.8.

Molecule `C[C@@H]1CCCN1CCc1ccc2nc(-c3cnc4c(c3)OCO4)ccc2c1` gave a logD of 2.8.

In the case of `O=C(C1CC(Oc2ccc(F)cc2)CN1)N1CCCN(C2CCC2)CC1` (stereo unspecified), the logD came out at 0.2. Turning to `Cc1c(-c2ccc3cc(CCN4CCC[C@H]4C)ccc3n2)cnn1-c1ccccn1`, the logD stood at 3.4. In the case of `C[C@@H]1CCCN1CCc1ccc2nc(-c3csc(-c4ccccc4)n3)ccc2c1` it was 4.4; in that of `CCCc1nc2ccccc2c(=O)n1-c1ccc(OCCCN2CCCC2)cc1`, 2.8; in that of `CN(Cc1ccc(-c2ccccc2)cc1)C(=O)N1CCC[C@H]1CN1CCCC1`, 2.6.

`Cc1nc2c(F)cccc2c(=O)n1-c1ccc(OCCCN2CCCC2)cc1` gave a logD of 1.9. For the molecule `C[C@@H]1CCCN1CCc1ccc2nc(-c3c(O)ccnc3C(F)(F)F)ccc2c1`, the logD stood at 3.6. The molecule `CC(C)c1nc2ccccc2c(=O)n1-c1ccc(OCCCN2CCCC2)cc1` registered a logD of 2.8.

`CCc1nc2ccccc2c(=O)n1-c1ccc(OCCCN2CCCC2)cc1` registered a logD of 2.4.

For `COc1cc2c(cc1OC)CN(C(=O)N1CCN(C(C)C)CC1)CC2`, the logD is 1. In the case of `COc1cccc2c(=O)n(C)c(-c3ccc(OC4CCN(C5CCC5)CC4)cc3)nc12` it was 2.2; in that of `COc1cccc2c1OC(c1ccc(OCCCN3CCCCC3)cc1)C(C)S2(=O)=O` (stereo unspecified), 2.7; in that of `COc1cc(-c2cnc3nc(N4CCC(N5CCCCC5)CC4)sc3c2)ccn1`, 1.4.

Take `C[C@@H]1CCCN1CCc1ccc(-c2ccc(S(=O)(=O)NCC3CC3)cc2)cc1`: the logD was found to be 2.8. In the case of `c1cc(-c2ccc3c(c2)OCO3)ccc1OCCCN1CCCCC1` it was 2.7; in that of `COc1ccc2c(=O)n(-c3ccc(OCCCN4CCCC4)cc3)c(C)nc2c1`, 1.7. In the case of `Cc1nc2cccc(C(F)(F)F)c2c(=O)n1-c1ccc(OCCCN2CCCC2)cc1` [MK-0249] it was 2.6; in that of `COc1cccc2c1OC(c1ccc(OCCCN3CCC[C@@H]3C)cc1)C(C)S2(=O)=O` (stereo partly specified), 2.6.

`C[C@@H]1CCCN1CCc1ccc2nc(C(C)(C)C)ccc2c1` showed a logD of 3.6. In the case of `Clc1cc2sc(N3CCC(N4CCCCC4)CC3)nc2cn1` it was 1.2; in that of `Cc1nc2cc(F)ccc2c(=O)n1-c1ccc(OCCCN2CCCC2)cc1`, 1.9.

`O=C(NCc1ccc(C(F)(F)F)cc1)N1CCC[C@H]1CN1CCCC1` had a logD of 1.8. As for `CC(C)n1c(-c2ccc(OCCCN3CCCCC3)cc2)nc2ccccc2c1=O`, the pH-dependent lipophilicity (logD) amounted to 3. In the case of `C[C@@H]1Sc2ccccc2O[C@@H]1c1ccc(OCCCN2CCCC2)cc1` it was 3.3. In the case of `Cc1nc(N2CCCC2)ncc1-c1ccc2cc(CCN3CCC[C@H]3C)ccc2n1` it was 2.7; in that of `Cc1ccc(-c2cnc3nc(N4CCC(N5CCCCC5)CC4)sc3c2)cn1`, 1.2. In the case of `Fc1ccc(-c2cc3sc(N4CCC(N5CCCCC5)CC4)nc3cn2)cn1` it was 1.7; in that of `Nc1ccc(-c2cc3sc(N4CCC(N5CCCCC5)CC4)nc3cn2)cn1`, 0.9. In turn, `COc1cccc2c1OC(c1ccc(OC3CCN(C4CCC4)CC3)cc1)C(C)S2(=O)=O` (stereo unspecified) had a logD of 3.3. In the case of `CC1CCCN1CCc1ccc2nc(-c3cccs3)ccc2c1` (stereo unspecified), the logD stood at 3.6. In the case of `N#Cc1ccc(OC2CNC(C(=O)N3CCCN(C4CCC4)CC3)C2)cc1` (stereo unspecified) it was -0.2.

As for `CC1CCN(c2ccc3cc(CCN4CCC[C@H]4C)ccc3n2)CC1`, the logD came to 2.9. In the case of `CCC(CO)NS(=O)(=O)c1ccc(-c2ccc(CCN3CCC[C@H]3C)cc2)cc1` (stereo partly specified) it was 2.3; in that of `c1csc(-c2ccc(OCCCN3CCCCC3)cc2)c1`, 2.8; in that of `CC(C)N1CCN(C(=O)N2CCC(C(=O)N3CC4CCC(CC4)C3)CC2)CC1`, 0.9. Molecule `Cc1ccc2nc(C)n(-c3ccc(OCCCN4CCCC4)cc3)c(=O)c2c1` came in with a logD of 2.2. In the case of `O=C(N1CCN(C2CCCC2)CC1)N1Cc2ccccc2C1` it was 1.1; in that of `CC(C)N1CCN(C(=O)N2CCc3ccccc3C2)CC1`, 1; in that of `Cc1ccc(-c2cc3sc(N4CCC(N5CCCCC5)CC4)nc3cn2)cn1`, 1.4.

Turning to `COc1cccc2c1OC(c1ccc(OCCCN3CCC[C@H](C)C3)cc1)C(C)S2(=O)=O` (stereo partly specified), the log distribution coefficient (logD) is 3.3. In the case of `c1ncc(-c2cnc3nc(N4CCC(N5CCCCC5)CC4)sc3c2)cn1`, the logD came out at 0.3.

In turn, `O=c1c2ccccc2nc(-c2ccccc2)n1-c1ccc(OCCCN2CCCC2)cc1` returned a logD of 3.4. In the case of `COc1cccc2nc(-c3ccc(OC4CCN(C5CCC5)CC4)cc3)n(C)c(=O)c12` it was 2.2. Consider `Fc1ncccc1-c1cnc2nc(N3CCC(N4CCCCC4)CC3)sc2c1`, for which the logD is 1.5. The molecule `Cc1nc(-c2nc(-c3ccc4cc(CCN5CCC[C@H]5C)ccc4n3)cs2)cs1` returned a logD of 3.6. `C[C@@H]1CCCN1CCc1ccc(-c2ccc(S(=O)(=O)N3CCOCC3)cc2)cc1` yielded a logD of 1.9. For `Cc1ccc2c(=O)n(-c3ccc(OCCCN4CCCC4)cc3)c(C)nc2c1`, the pH-dependent lipophilicity (logD) amounted to 2.2. In the case of `COC1CCN(S(=O)(=O)c2ccc(-c3ccc(CCN4CCC[C@H]4C)cc3)cc2)CC1` it was 2; in that of `CC1CCCN1CCc1ccc2nc(-c3ccoc3)ccc2c1` (stereo unspecified), 2.7; in that of `C[C@@H]1CCCN1CCc1ccc2nc(-c3ccc(C#N)s3)ccc2c1`, 3.8. In the case of `CC(C)N1CCN(C(=O)N2Cc3ccccc3C2)CC1` it was 0.7.

As to `Cc1nc(C)c(-c2ccc3cc(CCN4CCC[C@H]4C)ccc3n2)s1`, the logD came to 2.9. In the case of `O=c1ccc(-c2cnc3nc(N4CCC(N5CCCCC5)CC4)sc3c2)c[nH]1` it was 1.2; in that of `Cn1c(-c2ccc(OC3CCN(C4CCC4)CC3)cc2)nc2c(Cl)cccc2c1=O`, 2.8. As to `Cn1c(-c2ccc(OC3CCN(C4CCC4)CC3)cc2)nc2c(F)cccc2c1=O`, the logD amounted to 2.4. In the case of `Cc1cccc2c(=O)n(C)c(-c3ccc(OC4CCN(C5CCC5)CC4)cc3)nc12` it was 2.7; in that of `Cc1c(-c2ccc3cc(CCN4CCC[C@H]4C)ccc3n2)cnn1C`, 2.5. In turn, `Cc1cccc2c(=O)n(-c3ccc(OCCCN4CCCC4)cc3)c(C)nc12` gave a logD of 2.2.
